# Key:
# [1] = test system: E. coli, K. pneumoniae, P. aeruginosa A. baumannii and E. cloacae; experiment: Effects of body fluids on MIC, all tested isolates; assay type: cell-based, Gram-negatives clinical isolates
# Procedure: Objective: The combinations of meropenem (MEM) in the presence of different concentrations of avibactam (AVI) and EDTA were tested. The triple combination test compounds were investigated for in-vitro activity in presence cation-adjusted Mueller Hinton broth (CA-MHB) and CA-MHB supplemented with different body fluids i.e. human serum (25% and 50%), pooled urine (25% and 50%), bovine Surfactant (1 and 5%) and human peritoneal fluid (25 and 50%) against the a set of Gram-negatives clinical isolates from India.
# Method: The tolerance screening was performed on a total of 60 isolates to ascertain tolerance to body fluids and total 19 isolates including ATCC strains and non-duplicate clinically relevant Escherichia coli (n=6), Klebsiella pneumoniae (n=3), Pseudomonas aeruginosa (n=6) Acinetobacter baumannii (n=3) and Enterobacter cloacae (n=1) were selected prior to susceptibility testing. Tested compounds included Meropenem with AVI at 4 and EDTA at 10 mM (MEM/A4/E10), Meropenem with AVI at 4 and EDTA at 20 mM (MEM/A4/E20), Meropenem with AVI at 8 and EDTA at 10 mM (MEM/A8/E10), Meropenem with AVI at 8 and EDTA at 20 mM (MEM/A8/E20), Meropenem (MEM), Ceftriaxone with sulbactam at […] and EDTA at 10 mM (CRO/S10/E10), Ceftazidime-avibactam (CZA), Amikacin (AMK), Tigecycline and Minocycline. […]
# A. baumannii = experiment: Frequency of Resistance (FOR) Study, A. baumannii; also: key: TMTC: To more to count; assay type: cell-based; settings: strain 8 - A. baumannii
# Procedure: (§1) Objective: The in-vitro study was conducted to determine the frequency of resistance in 8 characterized isolates.
# (§2) • Isolates: 8 isolates-E. coli (3), K. pneumoniae (2), A. baumannii (1) and P. aeruginosa (2) • Compound tested: Meropenem; Meropenem Avibactam (4); Meropenem EDTA (10 mM); Meropenem Avibactam (4) EDTA (10 mM) • Antibiotic Concentration used: […]
# K. pneumoniae = experiment: Frequency of Resistance (FOR) Study, K. pneumoniae; assay type: cell-based
# Procedure: as §1, §2
smiles,measurement,setting,value
"C[C@@H](O)[C@H]1C(=O)N2C(C(=O)O)=C(S[C@@H]3CN[C@H](C(=O)N(C)C)C3)[C@H](C)[C@H]12 [Meropenem, (4R,5S,6S)-3-(((3S,5S)-5-(dimethylcarbamoyl)pyrrolidin-3-yl)thio)-6-((R)-1-hydroxyethyl)-4-methyl-7-oxo-1-azabicyclo[3.2.0]hept-2-ene-2-carboxylic acid]",MIC,[1],> 32 µg/mL
same,"count, 24 H of Incubation",A. baumannii; ATB concentration 4x,TMTC
same,"count, 24 H of Incubation",A. baumannii; ATB concentration 8x,TMTC
same,"count, 24 H of Incubation",A. baumannii; ATB concentration 16x,TMTC
same,"count, 24 H of Incubation","K. pneumoniae; strain 6 - K. pneumoniae, ATB concentration 4x",TMTC
same,"count, 24 H of Incubation","K. pneumoniae; strain 6 - K. pneumoniae, ATB concentration 8x",303
same,"count, 24 H of Incubation","K. pneumoniae; strain 6 - K. pneumoniae, ATB concentration 16x",0
same,"count, 24 H of Incubation","K. pneumoniae; strain 7 - K. pneumoniae, ATB concentration 4x",TMTC
same,"count, 24 H of Incubation","K. pneumoniae; strain 7 - K. pneumoniae, ATB concentration 8x",TMTC
same,"count, 24 H of Incubation","K. pneumoniae; strain 7 - K. pneumoniae, ATB concentration 16x",TMTC
